Assay [1] relates to THP1-Dual cells, IRF pathway (IRF3). Kind of assay: STING THP1 Reporter Assay, IRF pathway (secreted Lucia luciferase, QUANTI-Luc). The class given is cell-based. The note with it: 10% human plasma, luciferase readout, 100% activation = 100 μM cGAMP, read-out: THP1 Reporter Assays EC50 (μM) IRF3. The text has this:
(§1) THP1-Dual™ cells were derived from the human THP-1 monocyte cell line by stable integration of two inducible reporter constructs. To this end, THP1-Dual™ cells allow the simultaneous study of the NF-κB pathway, by monitoring the activity of SEAP, and the IRF pathway by assessing the activity of a secreted luciferase (Lucia). Both reporter proteins are readily measurable in the cell culture supernatant when using QUANTI-Blue™, a SEAP detection reagent, and QUANTI-Luc™, a luciferase detection reagent.
(§2) THP1-Dual™ cells induce the activation of NF-κB in response to STING agonists. They also trigger the IRF pathway upon stimulation with STING agonists, such as cGAMP. Here, the THP-1-Dual cells were used to assess STING binders for function on the cellular level.
(§3) Serial dilutions of compounds in DMSO were added to low volume 384 well plates at 100 nl/well using an ECHO acoustic dispenser (Labcyte, model 550) to achieve final starting concentration of 100 μM in cell suspension. THP-1 Dual™ STING reporter cells (Invivogen, Dual cells cat #THPD-nfis) were added to the plates with compounds at 15,000 cells in 10 μL per well in RPMI media (Gibco, cat #11875) containing 10% human plasma in a low volume 384-well black wall clear bottom tissue culture plate (Corning, cat #3542) for SEAP assay and low volume solid white plate (Corning, cat #3826) for luciferase assay. One column of the plate was reserved for treatment with cGAMP at 100 μM for 100% activation calculation and one column for no treatment (DMSO only) for baseline activation. Plates were then incubated in 37 OC incubator at 5% CO2 for 20 hours.
(§4) In the SEAP assay, 5 μl of 2× QuantiBlue (Invivogen, cat #Rep-qb2) is added to 384 well black plates seeded with THP1 cells and incubated at 37° C. for 2 hours. Plates were read on the Envision (Perkin Elmer) at 620 nm wavelength (OD620). In the luciferase assay, 5 μl of Quantiluc (Invivogen, Rep-qlc2) is added to white 384 well plates seeded with THP1 cells and read at 5 minutes on the Envision (Perkin Elmer) using a luminescence protocol (RLU). For both cell lines, 100% activation was determined by value (RLU) of THP-1 Dual STING cells stimulated with 100 μM cGAMP (Invivogen, cat #TLRL-NACGA23-5).
A general note: In a reporter assay the amount or activity of a reporter protein is the signal.

Assay [2] relates to THP1-Dual cells, NF-κB pathway. Description: STING THP1 Reporter Assay, NF-κB pathway (SEAP, QUANTI-Blue). The assay is classed as cell-based. The note with it: 10% human plasma, SEAP readout (OD620), 100% activation = 100 μM cGAMP, read-out: THP1 Reporter Assays EC50 (μM) NFkB.
Excerpt: as §1, §2, §3, §4

Assay [3] deals with T1, STING AQ: His-TVMV-S-hSTING(155-341)-G230A-R293Q (Homo sapiens, UniProt Q86WV6, G230A/H232R/R293Q).
T1 construct: STING AQ: His-TVMV-S-hSTING(155-341)-G230A-R293Q
Description: STING HTRF binding assay (time resolved FRET competition), STING AQ. The note with it: 20 nM His-tagged STING AQ cytoplasmic domain, 40 nM fluorescein-labeled cGAMP analog probe, one hour; read-out: HTRF Binding Assays IC50 (μM) AQ. The procedure: (§5) A time resolved FRET-based competition binding assay was used to assess test article binding to STING WT and STING AQ. His-tagged STING cytoplasmic domain (WT or AQ) at a concentration of 20 nM was incubated with 2.5 nM Tb-labeled anti-His antibody, test compound, and fluorescein-labeled cGAMP analog probe (BioLog cat. no. C195) at a concentration of 200 nM (STING WT) or 40 nM (STING AQ) in PBS containing 0.005% Tween-20 and 0.1% BSA for one hour. Fluorescence at 495 nm and 520 nm was measured using an EnVision microplate reader to quantify FRET between Tb-labeled anti-His antibody and fluorescein-labeled probe. Background was defined as the signal obtained in the absence of STING protein, and background subtracted FRET ratios were normalized to the maximum signal obtained in the absence of test compound. These values were converted to a percent inhibition. Percent inhibition was determined for test compounds at 11 concentrations. The IC50, defined as the concentration of competing test compound needed to reduce specific binding of the probe by 50%, was calculated using the 4 parameter logistic equation to fit the data
(In general: Time-resolved FRET reads energy transfer from a long-lived donor to a nearby acceptor.)

For assay [4], the target named is T2, STING WT: His-TVMV-S-hSTING(155-341)-H232R (Homo sapiens, UniProt Q86WV6, H232R).
T2 construct: STING WT: His-TVMV-S-hSTING(155-341)-H232R
Description: STING HTRF binding assay (time resolved FRET competition), STING WT. The note with it: 20 nM His-tagged STING WT cytoplasmic domain, 200 nM fluorescein-labeled cGAMP analog probe, one hour; read-out: HTRF Binding Assays IC50 (μM) WT. The procedure:
as §5

Like-named read-outs stand apart in the source and are kept apart here.

T2 sequence (Q86WV6 with tags, fused parts or gaps H232R): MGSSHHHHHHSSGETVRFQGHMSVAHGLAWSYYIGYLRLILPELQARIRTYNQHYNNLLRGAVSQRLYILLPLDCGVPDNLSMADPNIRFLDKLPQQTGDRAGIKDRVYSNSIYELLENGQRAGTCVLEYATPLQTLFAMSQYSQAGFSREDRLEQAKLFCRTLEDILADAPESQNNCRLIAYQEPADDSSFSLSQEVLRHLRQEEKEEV
T1 sequence (Q86WV6 with tags, fused parts or gaps G230A/H232R/R293Q): as the sequence (Q86WV6 with tags, fused parts or gaps H232R) above, with G99A, R162Q counted along it

Regarding `Nc1ncnc2c1ncn2[C@@H]1O[C@@H]2COP(=O)(S)OC[C@@H]3[C@@H](COP(=O)(S)O[C@H]2[C@H]1F)C[C@H]3n1cnc2c(=O)n3cnnc3[nH]c21` (single isomer, unassigned) [Example 21-1], the EC50 in assay [1] (20 hours) stood at 5.36 µM; in assay [2] (20 hours), 25 µM. For the same compound, the IC50 in assay [3] was 0.004 µM; in assay [4], 0.15 µM.
As to `Nc1ncnc2c1ncn2[C@@H]1C[C@@H]2COP(=O)(S)O[C@@H]3[C@H](O)[C@@H](COP(=O)(S)OC[C@H]21)O[C@H]3n1cnc2c(=O)n3ccnc3[nH]c21` (single isomer, unassigned) [Example 2-1], the EC50 in assay [1] (Homo sapiens, THP1-Dual, 20 h) came to 3.07 µM; in assay [2] (Homo sapiens, THP1-Dual, 20 h), 7.15 µM. The results for the IC50 in assay [3] and in assay [4] were 0.002 µM and 0.06 µM, respectively.
Take `Nc1ncnc2c1ncn2[C@@H]1C[C@@H]2COP(=O)(S)O[C@@H]3[C@H](F)[C@@H](COP(=O)(S)OC[C@H]21)O[C@H]3n1cnc2c(=O)n3cc[nH]c3nc21` (single isomer, unassigned) [Example 6-2]: the EC50 in assay [1] (20 hours) is 3.18 µM; in assay [2] (20 hours), 6.99 µM. Also, the IC50 amounted to 0.01 µM in assay [3] and 0.13 µM in assay [4].
On to `Nc1ncnc2c1ncn2[C@@H]1C[C@@H]2COP(=O)(S)O[C@@H]3[C@H](F)[C@@H](COP(=O)(S)OC[C@H]21)O[C@H]3n1cnc2c1ncn1ccnc21` (single isomer, unassigned) [Example 8-4], for which the EC50 is 26.1 µM in assay [1] (20 hours) and 32.4 µM in assay [2] (20 hours). Further, the IC50 in assay [3] came out at 0.08 µM; in assay [4] it was 0.35 µM.
Taken in the same sequence, the figures for `O=P1(S)OC[C@@H]2[C@@H](COP(=O)(S)O[C@H]3[C@@H](F)[C@H](n4cnc5c4ncn4ccnc54)O[C@@H]3CO1)C[C@H]2n1cnc2c(Cl)ncnc21` (single isomer, unassigned) [Example 18-4] were more than 100 µM, more than 100 µM, 2.18 µM and 24.5 µM.
In the case of `Nc1ncnc2c1ncn2[C@@H]1C[C@@H]2COP(=O)(S)O[C@H]3[C@@H](O)[C@H](n4cnc5c(=O)n6cc[nH]c6nc54)O[C@@H]3COP(=O)(S)OC[C@H]21` (single isomer, unassigned) [Example 5-4], the EC50 in assay [1] (20 hours) and in assay [2] (20 hours) was more than 100 µM each time. Besides, the IC50 in assay [3] was determined as 0.11 µM; in assay [4], 34.5 µM.
`O=P1(S)OC[C@@H]2[C@@H](COP(=O)(S)O[C@H]3[C@@H](F)[C@H](n4cnc5c4ncn4ccnc54)O[C@@H]3CO1)C[C@H]2n1cnc2c(Cl)ncnc21` (single isomer, unassigned) [Example 18-2]: the EC50 in assay [1] (20 hours) and in assay [2] (20 hours) was more than 100 µM throughout. Further, the values for the IC50 in assay [3] and in assay [4] were 35.7 µM and more than 100 µM, respectively.
Regarding `Nc1ncnc2c1ncn2[C@@H]1C[C@@H]2COP(=O)(S)O[C@@H]3[C@H](F)[C@@H](COP(=O)(S)OC[C@H]21)O[C@H]3n1cnc2c1ncn1ccnc21` (single isomer, unassigned) [Example 8-3], the EC50 in assay [1] (20 hours) and in assay [2] (20 hours) was more than 100 µM throughout. For the same compound, the values for the IC50 in assay [3] and in assay [4] were 0.3 µM and 0.89 µM, respectively.
As to `Nc1ncnc2c1ncn2[C@@H]1O[C@@H]2COP(=O)(S)OC[C@@H]3[C@@H](COP(=O)(S)O[C@H]2[C@H]1F)C[C@H]3n1cnc2c(O)n3ccnc3nc21` (single isomer, unassigned) [Example 1-4], the EC50 in assay [1] (20 hours) came out at 0.39 µM; in assay [2] (20 hours), 1.21 µM. Besides, the values for the IC50 in assay [3] and in assay [4] were 0.002 µM and 0.01 µM, respectively.
In the case of `Nc1ncnc2c1ncn2[C@@H]1C[C@@H]2COP(=O)(S)O[C@@H]3[C@H](F)[C@@H](COP(=O)(O)OC[C@H]21)O[C@H]3n1cnc2c(=O)n3ccnc3[nH]c21` (stereo partly drawn) [Example 7, 3-[(1S,6S,8R,9R,15R,17R,18R)-8-(6-amino-9H-purin-9-yl)-18-fluoro-3,12-dihydroxy-12-oxo-3-sulfanylidene-2,4,11,13,16-pentaoxa-3λ^5,12λ^5-diphosphatricyclo[13.2.1.0^6,9]octadecan-17-yl]-3H,5H,9H-imidazo[1,2-a]purin-9-one], the EC50 came to 3.01 µM in assay [1] (Homo sapiens, THP1-Dual, 20 h) and 11.5 µM in assay [2] (Homo sapiens, THP1-Dual, 20 h). Also, the IC50 was 0.002 µM in assay [3] and 0.12 µM in assay [4].
With `NC(=O)c1cc([C@@H]2C[C@@H]3COP(=O)(S)OC[C@@H]4[C@@H](COP(=O)(S)OC[C@H]32)C[C@H]4n2cnc3c(N)ncnc32)ccn1` (single isomer, unassigned) [Example 15-2], the EC50 in assay [1] (20 hours) is more than 100 µM. Besides, the results for the IC50 in assay [3] and in assay [4] were 73.5 µM and more than 100 µM, respectively.
Consider `Nc1ncnc2c1ncn2[C@@H]1O[C@@H]2COP(=O)(S)OC[C@@H]3[C@@H](COP(=O)(S)O[C@H]2[C@H]1F)C[C@H]3n1cnc2c(=O)n3cnnc3[nH]c21` (single isomer, unassigned) [Example 21-2], for which the EC50 in assay [1] (20 hours) and in assay [2] (20 hours) was more than 100 µM throughout. In addition, the IC50 in assay [3] worked out at 0.2 µM; in assay [4], 6.97 µM.
Take `Nc1ncnc2c1ncn2[C@@H]1O[C@@H]2COP(=O)(S)OC[C@@H]3[C@@H](COP(=O)(S)O[C@H]2[C@H]1F)C[C@H]3n1cnc2c(=O)[nH]cnc21` (single isomer, unassigned) [Example 22-3]: the EC50 in assay [1] (20 hours) and in assay [2] (20 hours) was more than 100 µM throughout. For the same compound, the IC50 stood at 0.04 µM in assay [3] and 2.71 µM in assay [4].
On to `Nc1ncnc2c1ncn2[C@@H]1O[C@@H]2COP(=O)(S)OC[C@@H]3[C@@H](COP(=O)(S)O[C@H]2[C@H]1F)C[C@H]3n1cnc2c(O)n3ccnc3nc21` (single isomer, unassigned) [Example 1-3], for which the 50% effective concentration (EC50) in assay [1] (20 hours) and in assay [2] (20 hours) was more than 100 µM throughout. The IC50 worked out at 0.02 µM in assay [3] and 0.84 µM in assay [4].
Take `NC(=O)c1cc([C@@H]2O[C@@H]3COP(=O)(S)OC[C@@H]4[C@@H](COP(=O)(S)O[C@@H]2[C@@H]3O)C[C@H]4n2cnc3c(N)ncnc32)ccn1` (single isomer, unassigned) [Example 20-2]: the EC50 in assay [1] (20 hours) and in assay [2] (20 hours) was more than 100 µM throughout. Besides, the IC50 in assay [3] and in assay [4] was more than 100 µM throughout.
For `NC(=O)c1cc([C@@H]2C[C@@H]3COP(=O)(S)OC[C@@H]4[C@@H](COP(=O)(S)OC[C@H]32)C[C@H]4n2cnc3c(N)ncnc32)ccn1` (single isomer, unassigned) [Example 15-1], the EC50 in assay [1] (Homo sapiens, THP1-Dual, 20 h) is more than 100 µM; in assay [2] (Homo sapiens, THP1-Dual, 20 h) it was more than 100 µM. The IC50 in assay [3] and in assay [4] was more than 100 µM in each case.
For the compound `Nc1ncnc2c1ncn2[C@@H]1O[C@@H]2COP(=O)(S)OC[C@@H]3[C@@H](COP(=O)(S)O[C@H]2[C@H]1F)C[C@H]3n1cnc2c(=O)[nH]cnc21` (single isomer, unassigned) [Example 22-2], the EC50 in assay [1] (20 hours) and in assay [2] (20 hours) was more than 100 µM throughout. The IC50 in assay [3] came to 0.02 µM.

The EC50 is the concentration that produces a half-maximal response. For orientation: IC50 means the concentration that inhibits the measured activity by half.

Source of the values: patent US11339185B2, “Cyclic dinucleotides as anticancer agents” (Bristol-Myers Squibb Company, priority 2018, dated 2022).
